Laboratory results reported in PubChem BioAssay (NCI).
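At the GI50, growth is halved. At the TGI there is no net growth.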

Assays:
Assay in all cases: DTP human tumour cell line panel, 384-well format
A498 renal = tested on: A498 renal
A549 NSCLC = tested on: A549 NSCLC
ACHN renal = tested on: ACHN renal
BT-549 breast = tested on: BT-549 breast
CAKI-1 renal = tested on: CAKI-1 renal
COLO 205 colon = tested on: COLO 205 colon
DU-145 prostate = tested on: DU-145 prostate
EKVX NSCLC = tested on: EKVX NSCLC
HCC-2998 colon = tested on: HCC-2998 colon
HCT-116 colon = tested on: HCT-116 colon
HCT-15 colon = tested on: HCT-15 colon
HL-60(TB) leukemia = tested on: HL-60(TB) leukemia
HOP-62 NSCLC = tested on: HOP-62 NSCLC
HOP-92 NSCLC = tested on: HOP-92 NSCLC
HS 578T breast = tested on: HS 578T breast
HT29 colon = tested on: HT29 colon
IGROV1 ovarian = tested on: IGROV1 ovarian
KM12 colon = tested on: KM12 colon
LOX IMVI melanoma = tested on: LOX IMVI melanoma
M14 melanoma = tested on: M14 melanoma
MALME-3M melanoma = tested on: MALME-3M melanoma
MCF7 breast = tested on: MCF7 breast
MDA-MB-231 breast = tested on: MDA-MB-231 breast
MDA-MB-435 melanoma = tested on: MDA-MB-435 melanoma
MDA-MB-468 breast = tested on: MDA-MB-468 breast
MOLT-4 leukemia = tested on: MOLT-4 leukemia
NCI-H226 lung = tested on: NCI-H226 lung
NCI-H23 lung = tested on: NCI-H23 lung
NCI-H322M lung = tested on: NCI-H322M lung
NCI-H460 NSCLC = tested on: NCI-H460 NSCLC
NCI-H522 lung = tested on: NCI-H522 lung
NCI/ADR-RES ovarian = tested on: NCI/ADR-RES ovarian
OVCAR-3 ovarian = tested on: OVCAR-3 ovarian
OVCAR-4 ovarian = tested on: OVCAR-4 ovarian
OVCAR-5 ovarian = tested on: OVCAR-5 ovarian
OVCAR-8 ovarian = tested on: OVCAR-8 ovarian
PC-3 prostate = tested on: PC-3 prostate
RPMI-8226 leukemia = tested on: RPMI-8226 leukemia
RXF 393 renal = tested on: RXF 393 renal
SF-268 CNS = tested on: SF-268 CNS
SF-295 CNS = tested on: SF-295 CNS
SF-539 CNS = tested on: SF-539 CNS
SK-MEL-28 melanoma = tested on: SK-MEL-28 melanoma
SK-MEL-5 melanoma = tested on: SK-MEL-5 melanoma
SK-OV-3 ovarian = tested on: SK-OV-3 ovarian
SN12C renal = tested on: SN12C renal
SNB-19 CNS = tested on: SNB-19 CNS
SNB-75 CNS = tested on: SNB-75 CNS
SR leukemia = tested on: SR leukemia
T-47D breast = tested on: T-47D breast
TK-10 renal = tested on: TK-10 renal
U251 glioblastoma = tested on: U251 glioblastoma
UACC-257 melanoma = tested on: UACC-257 melanoma
UACC-62 melanoma = tested on: UACC-62 melanoma

With `O=C(Oc1ccc([N+](=O)[O-])cc1)N1CCN(Cc2cccc(Oc3ccccc3)c2)CC1` the GI50 (A498 renal) was 42.1 µM, the TGI (A498 renal) was greater than 100 µM and the GI50 (A549 NSCLC) was greater than 100 µM. The TGI (A549 NSCLC) was greater than 100 µM, the GI50 (ACHN renal) was greater than 100 µM and the TGI (ACHN renal) was greater than 100 µM. The GI50 (BT-549 breast) was 67.1 µM, the TGI (BT-549 breast) was greater than 100 µM and the GI50 (CAKI-1 renal) was greater than 100 µM. For the same compound, the TGI (CAKI-1 renal) was greater than 100 µM, the GI50 (COLO 205 colon) was greater than 100 µM and the TGI (COLO 205 colon) was greater than 100 µM. The GI50 (DU-145 prostate) was greater than 100 µM, the TGI (DU-145 prostate) was greater than 100 µM and the GI50 (EKVX NSCLC) was 44.1 µM. The TGI (EKVX NSCLC) was greater than 100 µM, the GI50 (HCC-2998 colon) was 47.3 µM and the TGI (HCC-2998 colon) was greater than 100 µM. For the same compound, the GI50 (HCT-116 colon) was 42.7 µM, the TGI (HCT-116 colon) was greater than 100 µM and the GI50 (HCT-15 colon) was 49.2 µM. It also gave a TGI (HCT-15 colon) greater than 100 µM, a GI50 (HL-60(TB) leukemia) of 13.2 µM and a TGI (HL-60(TB) leukemia) of 34.2 µM. For the same compound, the GI50 (HOP-62 NSCLC) was greater than 100 µM, the TGI (HOP-62 NSCLC) was greater than 100 µM and the GI50 (HOP-92 NSCLC) was greater than 100 µM. It also gave a TGI (HOP-92 NSCLC) greater than 100 µM, a GI50 (HS 578T breast) of 92.3 µM and a TGI (HS 578T breast) greater than 100 µM. It also gave a GI50 (HT29 colon) of 51.6 µM, a TGI (HT29 colon) greater than 100 µM and a GI50 (IGROV1 ovarian) greater than 100 µM. The TGI (IGROV1 ovarian) was greater than 100 µM, the GI50 (KM12 colon) was 99.3 µM and the TGI (KM12 colon) was greater than 100 µM. The GI50 (LOX IMVI melanoma) was 53.9 µM, the TGI (LOX IMVI melanoma) was greater than 100 µM and the GI50 (M14 melanoma) was greater than 100 µM. The TGI (M14 melanoma) was greater than 100 µM, the GI50 (MALME-3M melanoma) was greater than 100 µM and the TGI (MALME-3M melanoma) was greater than 100 µM. The GI50 (MCF7 breast) was 31 µM, the TGI (MCF7 breast) was greater than 100 µM and the GI50 (MDA-MB-231 breast) was greater than 100 µM. For the same compound, the TGI (MDA-MB-231 breast) was greater than 100 µM, the GI50 (MDA-MB-435 melanoma) was greater than 100 µM and the TGI (MDA-MB-435 melanoma) was greater than 100 µM. It also gave a GI50 (MDA-MB-468 breast) of 20.6 µM, a TGI (MDA-MB-468 breast) greater than 100 µM and a GI50 (MOLT-4 leukemia) of 41.4 µM. It also gave a TGI (MOLT-4 leukemia) greater than 100 µM, a GI50 (NCI-H226 lung) greater than 100 µM and a TGI (NCI-H226 lung) greater than 100 µM. It also gave a GI50 (NCI-H23 lung) of 53.8 µM, a TGI (NCI-H23 lung) greater than 100 µM and a GI50 (NCI-H322M lung) of 46.2 µM. For the same compound, the TGI (NCI-H322M lung) was greater than 100 µM, the GI50 (NCI-H460 NSCLC) was 21.6 µM and the TGI (NCI-H460 NSCLC) was 59.6 µM. The GI50 (NCI-H522 lung) was 22.9 µM, the TGI (NCI-H522 lung) was greater than 100 µM and the GI50 (NCI/ADR-RES ovarian) was 27.5 µM. For the same compound, the TGI (NCI/ADR-RES ovarian) was greater than 100 µM, the GI50 (OVCAR-3 ovarian) was greater than 100 µM and the TGI (OVCAR-3 ovarian) was greater than 100 µM. It also gave a GI50 (OVCAR-4 ovarian) of 30.9 µM, a TGI (OVCAR-4 ovarian) greater than 100 µM and a GI50 (OVCAR-5 ovarian) greater than 100 µM. It also gave a TGI (OVCAR-5 ovarian) greater than 100 µM, a GI50 (OVCAR-8 ovarian) greater than 100 µM and a TGI (OVCAR-8 ovarian) greater than 100 µM. For the same compound, the GI50 (PC-3 prostate) was greater than 100 µM, the TGI (PC-3 prostate) was greater than 100 µM and the GI50 (RPMI-8226 leukemia) was 25.4 µM. The TGI (RPMI-8226 leukemia) was greater than 100 µM, the GI50 (RXF 393 renal) was 48 µM and the TGI (RXF 393 renal) was greater than 100 µM. The GI50 (SF-268 CNS) was greater than 100 µM, the TGI (SF-268 CNS) was greater than 100 µM and the GI50 (SF-295 CNS) was greater than 100 µM. The TGI (SF-295 CNS) was greater than 100 µM, the GI50 (SF-539 CNS) was greater than 100 µM and the TGI (SF-539 CNS) was greater than 100 µM. It also gave a GI50 (SK-MEL-28 melanoma) greater than 100 µM, a TGI (SK-MEL-28 melanoma) greater than 100 µM and a GI50 (SK-MEL-5 melanoma) of 18 µM. For the same compound, the TGI (SK-MEL-5 melanoma) was 55.2 µM, the GI50 (SK-OV-3 ovarian) was greater than 100 µM and the TGI (SK-OV-3 ovarian) was greater than 100 µM. For the same compound, the GI50 (SN12C renal) was 33.8 µM, the TGI (SN12C renal) was greater than 100 µM and the GI50 (SNB-19 CNS) was greater than 100 µM. For the same compound, the TGI (SNB-19 CNS) was greater than 100 µM, the GI50 (SNB-75 CNS) was greater than 100 µM and the TGI (SNB-75 CNS) was greater than 100 µM. The GI50 (SR leukemia) was 16.7 µM, the TGI (SR leukemia) was 32.9 µM and the GI50 (T-47D breast) was 30.6 µM. It also gave a TGI (T-47D breast) greater than 100 µM, a GI50 (TK-10 renal) of 46.7 µM and a TGI (TK-10 renal) greater than 100 µM. The GI50 (U251 glioblastoma) was greater than 100 µM, the TGI (U251 glioblastoma) was greater than 100 µM and the GI50 (UACC-257 melanoma) was 23.2 µM. For the same compound, the TGI (UACC-257 melanoma) was greater than 100 µM, the GI50 (UACC-62 melanoma) was greater than 100 µM and the TGI (UACC-62 melanoma) was greater than 100 µM.
